Experimental data reported in the supplement of paper PMC10307832.

Key:
Experiment in all cases: relative viability (nuclei count vs DMSO), 5 days (fraction); higher = more cells survive
[1] = compound: CC1=CC(=CC=C1)NC2=NC(=CS2)C3=CC=NC=C3 + Cc1nc(NC(=O)N2CCC[C@H]2C(N)=O)sc1-c1ccnc(C(C)(C)C(F)(F)F)c1 [Alpelisib] (partner 2 µM)
Procedure, shortened: (§1)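 Nuclei were stained with Hoechst during a one-step fixation (final 0.05% Triton X-100, 1% formaldehyde, 1 ug/ml Hoechst) carried out 5 days after dosing, then counted on 4× images. The cells, lung cancer lines in 1536-well plates, had been dosed by pin tool the day after seeding with one drug alone or a fixed anchor-drug dose plus five library-drug doses (not always all listed) in √10 steps. Relative viability is the nuclei count in treated wells divided by that in vehicle wells, and each value is the median of duplicate plates.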

[2] = compound: CC1=CC(=CC=C1)NC2=NC(=CS2)C3=CC=NC=C3 + CC(=O)Nc1cccc(-n2c(=O)n(C3CC3)c(=O)c3c(Nc4ccc(I)cc4F)n(C)c(=O)c(C)c32)c1 [Trametinib] (partner 0.02 µM)
Procedure, shortened: as §1

[3] = compound: Cc1ccc(NC(=O)c2ccc(CN3CCN(C)CC3)cc2)cc1Nc1nc(-c2cccnc2)cs1 [Masitinib] + O=C(CCCCCCC(=O)Nc1ccccc1)NO [Vorinostat] (partner 1 µM)
Procedure, shortened: as §1

[4] = compound: CC1=CC(=CC=C1)NC2=NC(=CS2)C3=CC=NC=C3 + N=C(N)NC(=N)NCCc1ccccc1 [Phenformin] (partner 250 µM)
Procedure, shortened: as §1

Row | Cell Line | relative viability ([1]; first compound 0.08 µM) | relative viability ([1]; first compound 0.253 µM) | relative viability ([1]; first compound 0.8 µM) | relative viability ([1]; first compound 2.53 µM) | relative viability ([1]; first compound 8 µM) | relative viability ([2]; first compound 0.08 µM) | relative viability ([2]; first compound 0.253 µM) | relative viability ([2]; first compound 0.8 µM) | relative viability ([2]; first compound 2.53 µM) | relative viability ([2]; first compound 8 µM) | relative viability ([3]; first compound 0.03162 µM) | relative viability ([3]; first compound 0.1 µM) | relative viability ([3]; first compound 0.3162 µM) | relative viability ([3]; first compound 1 µM) | relative viability ([4]; first compound 0.08 µM) | relative viability ([4]; first compound 0.253 µM) | relative viability ([4]; first compound 0.8 µM) | relative viability ([4]; first compound 2.53 µM) | relative viability ([4]; first compound 8 µM) | relative viability ([3]; first compound 0.01 µM)
1 | HCC-366 | 0.306 | 0.215 | 0.275 | 0.317 | 0.209 | 0.357 | 0.273 | 0.183 | 0.214 | 0.168 | 0.335 | 0.344 | 0.249 | 0.334 | 0.635 | 0.601 | 0.576 | 0.607 | 0.505 | 
2 | HCC-827 | 0.946 | 0.913 | 0.907 | 1.03 | 0.836 | 0.497 | 0.529 | 0.564 | 0.542 | 0.53 | 0.845 | 0.712 | 0.876 | 0.745 | 0.416 | 0.383 | 0.447 | 0.445 | 0.38 | 0.603
3 | HOP-62 | 0.932 | 0.809 | 1.1 | 1.06 | 1.17 | 0.371 | 0.324 | 0.345 | 0.328 | 0.266 | 0.573 | 0.681 | 0.746 | 0.687 | 0.683 | 0.609 | 0.804 | 0.722 | 0.65 | 0.588
4 | IA-LM | 0.706 |  | 0.815 | 0.533 | 0.673 |  |  |  |  |  | 0.747 | 1.06 | 1.19 | 0.957 |  |  |  |  |  | 0.737
5 | LC-2-ad | 0.859 | 0.698 | 0.812 | 0.813 | 0.817 | 0.862 | 0.881 | 0.826 | 0.839 | 0.8 | 0.666 | 0.584 | 0.694 | 0.718 | 0.556 |  | 0.568 | 0.585 | 0.523 | 0.546
6 | LCLC-97TM1 |  |  | 0.298 | 0.258 | 0.238 | 0.185 | 0.214 | 0.157 | 0.178 | 0.185 | 0.778 | 0.472 | 0.887 | 0.712 | 0.424 | 0.414 | 0.456 | 0.456 | 0.483 | 0.534
7 | LCLC-103H | 0.774 | 0.875 | 0.909 | 0.967 | 0.883 | 0.629 | 0.593 | 0.586 | 0.579 | 0.658 | 0.778 | 0.666 | 0.778 | 0.761 | 0.284 | 0.308 | 0.327 | 0.309 | 0.27 | 
8 | LK-2 | 0.898 | 1.09 | 1.33 |  | 1.19 | 0.817 | 0.806 | 0.951 | 0.772 | 1.33 | 0.265 | 0.393 | 0.225 | 0.369 |  | 0.365 | 0.584 |  | 0.44 | 0.246
9 | LOU-NH91 | 0.617 | 0.686 | 0.59 | 0.698 | 0.592 | 0.704 | 0.734 | 0.721 | 0.754 | 0.728 | 0.795 | 0.884 | 0.793 | 0.883 | 0.468 | 0.364 | 0.63 | 0.591 | 0.744 | 0.84
